For test [1], the system named is human cerebral artery rings. As to the kind of experiment: tone of isolated human cerebral artery rings exposed to prostanoid receptor agonists. The class given is cell-based. Particulars: for effect on smaller diameter cerebral artery rings contracted with phenylephrine, TP receptors blocked: phenylephrine 1 μM, GR32191 1 μM in bathing solution. As to the method: Sections of cerebral artery were removed from different regions of preparations of human cerebral vasculature containing an intact circle of Willis. Intact rings of this cerebral artery, 2-3 mm in length, were set up under isometric conditions in 10 ml organ baths under an initial tension of 1 g. All tissues were maintained at 37° C. and gassed constantly with 95% O2/5% CO2. Following a 90 min equilibration period all tissues were challenged with phenylephrine (1 μM), to determine tissue viability. Once a stable contraction had been obtained, tissues were exposed to a range of prostanoid receptor agonists, in the absence or presence of receptor antagonists, to determine the functional role of prostanoid receptors in maintaining arterial tone.

The target in another test is EP2 (Homo sapiens, UniProt P43116). Particulars: cited from earlier work.
Sequence of EP2 (P43116 whole entry): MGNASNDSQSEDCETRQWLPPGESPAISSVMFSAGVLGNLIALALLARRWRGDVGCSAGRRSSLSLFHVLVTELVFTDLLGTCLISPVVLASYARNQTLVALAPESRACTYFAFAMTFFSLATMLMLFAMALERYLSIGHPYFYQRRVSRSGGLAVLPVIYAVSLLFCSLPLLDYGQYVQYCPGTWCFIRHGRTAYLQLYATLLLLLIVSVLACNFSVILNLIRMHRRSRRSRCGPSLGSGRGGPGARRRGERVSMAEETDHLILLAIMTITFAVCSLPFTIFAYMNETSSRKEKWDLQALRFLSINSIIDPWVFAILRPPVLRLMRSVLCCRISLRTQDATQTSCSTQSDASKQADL
The next test addresses T1, EP3 (Homo sapiens, UniProt P43115).
T1 sequence (P43115 1-390): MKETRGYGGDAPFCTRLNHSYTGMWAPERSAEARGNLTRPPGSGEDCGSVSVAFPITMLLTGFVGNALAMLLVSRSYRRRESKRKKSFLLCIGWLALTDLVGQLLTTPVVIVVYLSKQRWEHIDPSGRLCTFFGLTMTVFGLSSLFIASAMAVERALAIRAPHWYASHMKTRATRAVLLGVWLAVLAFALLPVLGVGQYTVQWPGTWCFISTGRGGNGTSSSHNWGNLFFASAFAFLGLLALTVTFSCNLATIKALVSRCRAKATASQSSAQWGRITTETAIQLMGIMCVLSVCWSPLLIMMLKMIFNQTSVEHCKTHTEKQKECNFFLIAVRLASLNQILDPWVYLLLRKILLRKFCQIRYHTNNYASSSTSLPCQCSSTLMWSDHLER
Particulars: cited from earlier work.

Another test addresses T2, EP4 receptors (Sus scrofa, UniProt I3LLK4).
T2 construct: providing a natural source of the receptors, such as piglet saphenous vein; from tissue; host or cells: piglet saphenous vein rings
Particulars: blockade of EP4 receptors; cited from earlier work.

The subject of the next test is EP1. Particulars: cited from earlier work.
In a further test the target is T3, EP4 receptor (Homo sapiens, UniProt P35408).
T3 construct: Intact rings of this cerebral artery, 2-3 mm in length, were set up under isometric conditions; from tissue; host or cells: human middle cerebral artery rings (one donor)
T3 sequence (P35408 whole entry): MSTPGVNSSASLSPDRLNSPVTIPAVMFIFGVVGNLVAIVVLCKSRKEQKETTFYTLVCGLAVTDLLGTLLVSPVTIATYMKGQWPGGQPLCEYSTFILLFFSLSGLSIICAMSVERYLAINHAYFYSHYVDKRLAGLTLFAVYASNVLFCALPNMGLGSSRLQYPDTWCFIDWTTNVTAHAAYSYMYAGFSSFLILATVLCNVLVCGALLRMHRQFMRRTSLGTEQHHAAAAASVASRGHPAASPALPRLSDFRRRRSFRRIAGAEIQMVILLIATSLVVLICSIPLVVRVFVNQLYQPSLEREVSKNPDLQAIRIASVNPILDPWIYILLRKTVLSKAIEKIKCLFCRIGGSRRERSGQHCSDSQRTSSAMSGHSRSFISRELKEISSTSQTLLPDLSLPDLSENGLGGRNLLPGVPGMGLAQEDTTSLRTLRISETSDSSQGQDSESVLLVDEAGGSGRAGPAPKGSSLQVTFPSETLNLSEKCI
As to the kind of experiment: antagonism of PGE2-mediated relaxation of phenylephrine pre-contracted middle cerebral artery rings. Particulars: 10 mM AH23848, 45 mins; P=0.004. The class given is cell-based. As to the method:
Sections of cerebral artery were removed from different regions of preparations of human cerebral vasculature containing an intact circle of Willis. […] Once a stable contraction had been obtained, tissues were exposed to a range of prostanoid receptor agonists, in the absence or presence of receptor antagonists, to determine the functional role of prostanoid receptors in maintaining arterial tone.
To test the effect of the EP4 receptor antagonist AH23848, cerebral rings were preincubated for 45 mins with 10 mM AH23848.

The subject of the next test is pulmonary artery. As to the kind of experiment: effect on pre-contracted pulmonary artery rings. The class given is cell-based, human. Particulars: tone induced with U-46619 10-100 nM; n=3 donors. As to the method:
(§1) Rings (2-4 mm internal diameter) were prepared from sections of pulmonary or coronary artery (n=3 each). They were mounted in organ baths under isometric conditions, in gassed Krebs solution (containing indomethacin) at 37° C., and 1-1.5 g initial tone.

The next test relates to coronary artery. Description: effect on pre-contracted coronary artery rings. Format: cell-based, human. Particulars: n=3 donors; for relaxation of coronary artery: tone induced with phenylephrine 1-10 μM or endothelin-1. As to the method: as §1

T2 sequence (I3LLK4 1-489): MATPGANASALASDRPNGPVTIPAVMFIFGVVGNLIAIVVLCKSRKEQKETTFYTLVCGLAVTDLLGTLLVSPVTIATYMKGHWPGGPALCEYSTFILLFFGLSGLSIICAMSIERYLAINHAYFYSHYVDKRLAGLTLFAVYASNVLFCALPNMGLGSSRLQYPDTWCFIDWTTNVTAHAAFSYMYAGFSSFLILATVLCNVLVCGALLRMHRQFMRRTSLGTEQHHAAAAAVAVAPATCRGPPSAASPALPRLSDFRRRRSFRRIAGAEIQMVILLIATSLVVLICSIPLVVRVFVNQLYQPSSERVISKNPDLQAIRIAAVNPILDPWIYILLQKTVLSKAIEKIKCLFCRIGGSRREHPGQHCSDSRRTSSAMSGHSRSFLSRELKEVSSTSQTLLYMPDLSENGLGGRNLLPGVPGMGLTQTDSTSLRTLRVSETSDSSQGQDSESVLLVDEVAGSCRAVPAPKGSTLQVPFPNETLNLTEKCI

In the case of `CCCCCC(O)c1ccc([C@@H]2CCC(=O)[C@H]2CCCCCCC(=O)O)cc1` (relative stereo) [AH13205, trans-2-(4-[1-hydroxyhexyl]phenyl)-5-oxocyclopentaneheptanoate], in test [1], the “effect on smaller diameter cerebral artery rings contracted with phenylephrine, TP receptors blocked” value (“effect … TP receptors blocked” for short) is reported as “neither compound caused relaxation”.

Consider `O=C(O)CCC/C=C\C[C@@H]1C(N2CCOCC2)C(=O)C[C@@H]1OCc1ccc(-c2ccccc2)cc1` (stereo partly shown) [AH22921], for which the “effect on EP2 receptor subtype” value at EP2 is given as “no effect”. The “effect on EP3 receptor subtype” value on EP3 is on record as “no effect”. The “pA2 against PGE2-induced relaxation of piglet saphenous vein” value on EP4 receptors is 5.3. Further, the “effect on EP1 receptor subtype” value with EP1 was “no effect”.

As to `O=C(O)CC/C=C\CC[C@@H]1C(N2CCOCC2)C(=O)C[C@@H]1OCc1ccc(-c2ccccc2)cc1` (stereo partly shown) [AH23848], the “effect on EP2 receptor subtype” value at EP2 is reported as “no effect”. Moreover, the “effect on EP3 receptor subtype” value on EP3 is “no effect”. Moreover, the “pA2 against PGE2-induced relaxation of piglet saphenous vein” value at EP4 receptors is 5.4. Moreover, in the test on EP1, the “effect on EP1 receptor subtype” value is “no effect”. The “shift of PGE2-mediated relaxation curve” value at EP4 receptor is on record as “significant rightward shift”.

Consider `CCCC1([C@H](O)C/C=C/[C@H]2[C@H](O)CC(=O)[C@@H]2CCCCCCC(=O)OC)CCC1` [Butaprost], for which the “effect … TP receptors blocked” value in test [1] is listed as “neither compound caused relaxation”.

As for `CC#CCC(C)[C@H](O)/C=C/[C@@H]1[C@H]2C/C(=C/CCCC(=O)O)C[C@H]2C[C@H]1O` (stereo partly shown) [Iloprost], the “effect … TP receptors blocked” value in test [1] was “induced relaxation”.

`CCCCC[C@H](O)/C=C/[C@H]1C(=O)C[C@H](O)[C@@H]1C/C=C\CCCC(=O)O` [PGD2]: in test [1], the “effect … TP receptors blocked” value is listed as “without effect”.

As for `CCCCC[C@H](O)/C=C/[C@H]1[C@H](O)CC(=O)[C@@H]1C/C=C\CCCC(=O)O` [PGE2, prostaglandin E2], the “relaxation of pulmonary artery” value with pulmonary artery was “did not cause relaxation”. Further, the “contraction of coronary artery” value with coronary artery (pre-contracted preparations) was “small contraction”. Moreover, the “relaxation of coronary artery” value with coronary artery is “did not cause relaxation”. Further, the “relaxation of cerebral artery rings pre-contracted with U46619 or 5-HT” value in test [1] (U46619 100 nM or 5-HT 300 nM and 1 μM, FIG. 2) was “maximal or near maximal relaxation”. In addition, the “effect of removal of the endothelium on the relaxant response” value in test [1] (human cerebral arteries) is on record as “did not affect”. Further, the “effect on smaller pre-contracted cerebral vessels” value in test [1] (internal diameter <1 mm, pre-contracted with phenylephrine) was “potent concentration-related relaxation”. For the same compound, in test [1] (internal diameter >1 mm), the “effect on larger cerebral vessels” value is “concentration-related contraction”. Moreover, the “concentration at which maximum relaxation occurs” value in test [1] (vessel pre-contracted with phenylephrine, FIG. 1) is given as “below 10^−6 M”.

Take `CCCCC[C@H](O)/C=C/[C@@H]1[C@@H](C/C=C\CCCC(=O)O)[C@@H](O)C[C@H]1O` [PGF2α]: the “effect … TP receptors blocked” value in test [1] is given as “without effect”.

Regarding `CCC#CC[C@H](C)[C@H](O)C#C[C@@H]1[C@H]2C/C(=C/COCC(=O)O)C[C@H]2C[C@H]1O` [cicaprost], in the test with pulmonary artery, the “relaxation of pulmonary artery” value is recorded as “induced a relaxation”. In the test with coronary artery, the “relaxation of coronary artery” value is listed as “induced a relaxation”. Moreover, the “effect … TP receptors blocked” value in test [1] is listed as “induced relaxation”.

Source of the values: patent publication US8513027B2, “Method of identifying an inhibitor of the prostanoid EP4 receptor” (Asterand UK Acquisition Limited, priority 1998, dated 2013).
